Experimental data: ChEMBL document CHEMBL1156804, “Potent inhibitors of furin and furin-like proprotein convertases containing decarboxylated P1 arginine mimetics” (J Med Chem, 2010)
Residues, ends and D or L forms follow the SMILES beside them. *: point of attachment. Agmatine = N=C(N)NCCCCN*; PhAc = O=C(Cc1ccccc1)*

What was measured:
Furin = Furin (Homo sapiens, UniProt P09958)
[1] = target: T1, Proprotein convertase subtilisin/kexin type 6 (Homo sapiens, UniProt P29122); test: Inhibition of human PACE4 expressed in Drosophila schneider 2 cells by fluorescence assay; format: cell-based
T1 sequence (P29122 whole entry): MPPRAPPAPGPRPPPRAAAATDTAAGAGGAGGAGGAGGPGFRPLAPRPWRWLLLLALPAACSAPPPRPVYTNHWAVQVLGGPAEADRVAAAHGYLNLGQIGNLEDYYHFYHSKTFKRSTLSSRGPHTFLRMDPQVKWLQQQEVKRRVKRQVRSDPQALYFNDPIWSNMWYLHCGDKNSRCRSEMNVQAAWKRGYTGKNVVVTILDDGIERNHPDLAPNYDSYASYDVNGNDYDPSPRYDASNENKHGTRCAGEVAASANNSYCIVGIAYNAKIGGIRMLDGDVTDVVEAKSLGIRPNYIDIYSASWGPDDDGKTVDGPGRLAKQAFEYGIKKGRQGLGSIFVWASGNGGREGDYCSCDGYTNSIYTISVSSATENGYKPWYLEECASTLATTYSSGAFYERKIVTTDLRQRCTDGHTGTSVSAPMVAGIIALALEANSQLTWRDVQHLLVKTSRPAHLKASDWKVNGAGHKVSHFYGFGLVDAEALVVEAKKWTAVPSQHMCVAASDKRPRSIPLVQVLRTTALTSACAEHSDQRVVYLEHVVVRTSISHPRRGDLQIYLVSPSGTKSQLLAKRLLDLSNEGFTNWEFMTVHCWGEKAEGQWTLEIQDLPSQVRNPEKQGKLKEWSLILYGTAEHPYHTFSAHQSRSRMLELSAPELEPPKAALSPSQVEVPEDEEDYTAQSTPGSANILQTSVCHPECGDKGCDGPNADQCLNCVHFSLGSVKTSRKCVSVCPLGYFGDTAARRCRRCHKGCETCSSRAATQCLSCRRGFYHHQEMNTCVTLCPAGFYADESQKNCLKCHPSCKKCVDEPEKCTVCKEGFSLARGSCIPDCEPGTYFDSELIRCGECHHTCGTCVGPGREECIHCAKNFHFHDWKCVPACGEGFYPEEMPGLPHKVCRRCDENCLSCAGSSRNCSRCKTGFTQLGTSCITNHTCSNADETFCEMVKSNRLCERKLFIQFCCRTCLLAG

Coagulation factor X = Coagulation factor X (Homo sapiens, UniProt P00742); test: Inhibition of factor 10a
[2] = target: Proprotein convertase subtilisin/kexin type 5 (Homo sapiens, UniProt Q92824); test: Inhibition of human PC5/6 expressed in Drosophila schneider 2 cells by fluorescence assay; format: cell-based
Plasminogen = Plasminogen (Homo sapiens, UniProt P00747); test: Inhibition of plasmin
[3] = target: T2, Proprotein convertase subtilisin/kexin type 7 (Homo sapiens, UniProt Q16549); test: Inhibition of human PC7 expressed in Drosophila schneider 2 cells by fluorescence assay; format: cell-based
T2 sequence (Q16549 whole entry): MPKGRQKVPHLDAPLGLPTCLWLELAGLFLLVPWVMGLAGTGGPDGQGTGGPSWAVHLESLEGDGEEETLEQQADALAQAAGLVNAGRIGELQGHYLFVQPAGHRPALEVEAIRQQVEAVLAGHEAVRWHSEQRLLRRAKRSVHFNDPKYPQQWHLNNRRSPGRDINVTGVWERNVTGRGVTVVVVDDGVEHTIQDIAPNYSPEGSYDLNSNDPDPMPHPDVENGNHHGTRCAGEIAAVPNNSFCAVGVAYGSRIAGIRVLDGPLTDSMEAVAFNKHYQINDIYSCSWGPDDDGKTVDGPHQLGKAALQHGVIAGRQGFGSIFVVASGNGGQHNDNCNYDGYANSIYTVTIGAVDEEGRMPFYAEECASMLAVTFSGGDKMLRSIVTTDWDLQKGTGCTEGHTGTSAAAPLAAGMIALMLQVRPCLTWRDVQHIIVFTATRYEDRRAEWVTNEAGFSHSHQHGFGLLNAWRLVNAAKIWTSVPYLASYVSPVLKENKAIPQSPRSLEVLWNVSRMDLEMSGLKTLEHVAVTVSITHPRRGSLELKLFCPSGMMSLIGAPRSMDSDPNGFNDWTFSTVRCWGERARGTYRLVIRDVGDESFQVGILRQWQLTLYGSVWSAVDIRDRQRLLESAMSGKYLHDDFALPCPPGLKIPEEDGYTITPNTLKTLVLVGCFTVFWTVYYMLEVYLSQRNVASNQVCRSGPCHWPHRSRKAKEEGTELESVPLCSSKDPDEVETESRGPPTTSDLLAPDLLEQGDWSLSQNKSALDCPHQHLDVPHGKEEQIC

Prothrombin = Prothrombin (Homo sapiens, UniProt P00734); test: Inhibition of thrombin
[4] = target: T3, Neuroendocrine convertase 2 (Homo sapiens, UniProt P16519); test: Inhibition of human PC2 expressed in Drosophila schneider 2 cells by fluorescence assay; format: cell-based
T3 sequence (P16519 whole entry): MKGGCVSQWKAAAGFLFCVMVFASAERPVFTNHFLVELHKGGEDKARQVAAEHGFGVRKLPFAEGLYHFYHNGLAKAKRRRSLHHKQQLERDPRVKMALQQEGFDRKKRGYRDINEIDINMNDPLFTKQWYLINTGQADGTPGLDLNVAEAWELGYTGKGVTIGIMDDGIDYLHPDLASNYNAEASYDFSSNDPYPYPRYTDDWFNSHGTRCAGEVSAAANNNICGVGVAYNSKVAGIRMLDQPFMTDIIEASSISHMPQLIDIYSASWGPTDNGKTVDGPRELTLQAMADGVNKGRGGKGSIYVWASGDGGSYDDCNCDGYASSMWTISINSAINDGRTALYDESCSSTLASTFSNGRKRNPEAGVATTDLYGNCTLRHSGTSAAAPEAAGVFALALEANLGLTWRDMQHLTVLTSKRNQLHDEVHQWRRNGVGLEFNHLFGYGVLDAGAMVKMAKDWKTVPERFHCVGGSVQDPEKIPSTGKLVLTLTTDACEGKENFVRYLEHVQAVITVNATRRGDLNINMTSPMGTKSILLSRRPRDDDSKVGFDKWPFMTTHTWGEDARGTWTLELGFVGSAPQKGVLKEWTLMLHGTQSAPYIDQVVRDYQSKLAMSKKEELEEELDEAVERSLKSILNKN

[5] = target: T4, Neuroendocrine convertase 1 (Homo sapiens, UniProt P29120); test: Inhibition of human PC1/3 expressed in Drosophila schneider 2 cells by fluorescence assay; format: cell-based
T4 sequence (P29120 whole entry): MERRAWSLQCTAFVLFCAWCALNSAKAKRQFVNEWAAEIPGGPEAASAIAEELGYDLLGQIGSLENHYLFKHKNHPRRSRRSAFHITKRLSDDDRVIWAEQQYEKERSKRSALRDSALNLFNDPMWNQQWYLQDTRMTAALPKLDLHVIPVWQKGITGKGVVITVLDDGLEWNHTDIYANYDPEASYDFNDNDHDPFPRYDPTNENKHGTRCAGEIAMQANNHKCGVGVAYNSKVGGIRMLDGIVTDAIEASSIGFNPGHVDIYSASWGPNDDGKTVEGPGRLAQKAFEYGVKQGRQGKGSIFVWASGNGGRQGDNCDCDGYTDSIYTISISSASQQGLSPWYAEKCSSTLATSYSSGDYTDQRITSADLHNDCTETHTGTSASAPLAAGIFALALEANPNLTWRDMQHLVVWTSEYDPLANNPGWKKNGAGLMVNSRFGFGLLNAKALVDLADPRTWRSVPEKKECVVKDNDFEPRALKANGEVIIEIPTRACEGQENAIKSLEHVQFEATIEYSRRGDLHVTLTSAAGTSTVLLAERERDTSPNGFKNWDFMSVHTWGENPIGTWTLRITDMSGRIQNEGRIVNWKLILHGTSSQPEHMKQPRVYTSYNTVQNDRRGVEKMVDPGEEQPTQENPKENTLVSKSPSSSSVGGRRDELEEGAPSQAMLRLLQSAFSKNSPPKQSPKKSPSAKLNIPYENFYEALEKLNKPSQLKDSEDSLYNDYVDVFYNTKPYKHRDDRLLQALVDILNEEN

cells = format: cell-based; details: Canis lupus familiaris, MDCK

Furin, sequence (P09958 whole entry): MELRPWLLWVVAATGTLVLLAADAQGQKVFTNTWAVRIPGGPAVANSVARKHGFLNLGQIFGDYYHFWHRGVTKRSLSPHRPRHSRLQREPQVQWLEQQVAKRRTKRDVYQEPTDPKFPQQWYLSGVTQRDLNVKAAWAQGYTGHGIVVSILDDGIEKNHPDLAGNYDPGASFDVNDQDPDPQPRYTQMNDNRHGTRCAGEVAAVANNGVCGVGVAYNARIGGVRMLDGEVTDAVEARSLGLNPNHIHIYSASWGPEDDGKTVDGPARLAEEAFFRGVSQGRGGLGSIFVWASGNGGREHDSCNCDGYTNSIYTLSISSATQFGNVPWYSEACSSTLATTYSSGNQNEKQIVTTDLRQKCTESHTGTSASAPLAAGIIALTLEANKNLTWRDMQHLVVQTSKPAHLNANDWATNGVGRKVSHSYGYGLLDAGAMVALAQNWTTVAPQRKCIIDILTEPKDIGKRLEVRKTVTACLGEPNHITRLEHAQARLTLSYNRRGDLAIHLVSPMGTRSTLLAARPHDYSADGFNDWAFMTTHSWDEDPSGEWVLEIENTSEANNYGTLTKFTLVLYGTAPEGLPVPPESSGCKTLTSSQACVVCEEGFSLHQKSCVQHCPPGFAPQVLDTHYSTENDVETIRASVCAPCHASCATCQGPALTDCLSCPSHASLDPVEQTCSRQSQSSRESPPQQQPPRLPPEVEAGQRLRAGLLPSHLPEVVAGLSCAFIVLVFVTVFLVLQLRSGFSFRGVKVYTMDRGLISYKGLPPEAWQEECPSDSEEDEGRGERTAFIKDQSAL
Proprotein convertase subtilisin/kexin type 5, sequence (Q92824 whole entry): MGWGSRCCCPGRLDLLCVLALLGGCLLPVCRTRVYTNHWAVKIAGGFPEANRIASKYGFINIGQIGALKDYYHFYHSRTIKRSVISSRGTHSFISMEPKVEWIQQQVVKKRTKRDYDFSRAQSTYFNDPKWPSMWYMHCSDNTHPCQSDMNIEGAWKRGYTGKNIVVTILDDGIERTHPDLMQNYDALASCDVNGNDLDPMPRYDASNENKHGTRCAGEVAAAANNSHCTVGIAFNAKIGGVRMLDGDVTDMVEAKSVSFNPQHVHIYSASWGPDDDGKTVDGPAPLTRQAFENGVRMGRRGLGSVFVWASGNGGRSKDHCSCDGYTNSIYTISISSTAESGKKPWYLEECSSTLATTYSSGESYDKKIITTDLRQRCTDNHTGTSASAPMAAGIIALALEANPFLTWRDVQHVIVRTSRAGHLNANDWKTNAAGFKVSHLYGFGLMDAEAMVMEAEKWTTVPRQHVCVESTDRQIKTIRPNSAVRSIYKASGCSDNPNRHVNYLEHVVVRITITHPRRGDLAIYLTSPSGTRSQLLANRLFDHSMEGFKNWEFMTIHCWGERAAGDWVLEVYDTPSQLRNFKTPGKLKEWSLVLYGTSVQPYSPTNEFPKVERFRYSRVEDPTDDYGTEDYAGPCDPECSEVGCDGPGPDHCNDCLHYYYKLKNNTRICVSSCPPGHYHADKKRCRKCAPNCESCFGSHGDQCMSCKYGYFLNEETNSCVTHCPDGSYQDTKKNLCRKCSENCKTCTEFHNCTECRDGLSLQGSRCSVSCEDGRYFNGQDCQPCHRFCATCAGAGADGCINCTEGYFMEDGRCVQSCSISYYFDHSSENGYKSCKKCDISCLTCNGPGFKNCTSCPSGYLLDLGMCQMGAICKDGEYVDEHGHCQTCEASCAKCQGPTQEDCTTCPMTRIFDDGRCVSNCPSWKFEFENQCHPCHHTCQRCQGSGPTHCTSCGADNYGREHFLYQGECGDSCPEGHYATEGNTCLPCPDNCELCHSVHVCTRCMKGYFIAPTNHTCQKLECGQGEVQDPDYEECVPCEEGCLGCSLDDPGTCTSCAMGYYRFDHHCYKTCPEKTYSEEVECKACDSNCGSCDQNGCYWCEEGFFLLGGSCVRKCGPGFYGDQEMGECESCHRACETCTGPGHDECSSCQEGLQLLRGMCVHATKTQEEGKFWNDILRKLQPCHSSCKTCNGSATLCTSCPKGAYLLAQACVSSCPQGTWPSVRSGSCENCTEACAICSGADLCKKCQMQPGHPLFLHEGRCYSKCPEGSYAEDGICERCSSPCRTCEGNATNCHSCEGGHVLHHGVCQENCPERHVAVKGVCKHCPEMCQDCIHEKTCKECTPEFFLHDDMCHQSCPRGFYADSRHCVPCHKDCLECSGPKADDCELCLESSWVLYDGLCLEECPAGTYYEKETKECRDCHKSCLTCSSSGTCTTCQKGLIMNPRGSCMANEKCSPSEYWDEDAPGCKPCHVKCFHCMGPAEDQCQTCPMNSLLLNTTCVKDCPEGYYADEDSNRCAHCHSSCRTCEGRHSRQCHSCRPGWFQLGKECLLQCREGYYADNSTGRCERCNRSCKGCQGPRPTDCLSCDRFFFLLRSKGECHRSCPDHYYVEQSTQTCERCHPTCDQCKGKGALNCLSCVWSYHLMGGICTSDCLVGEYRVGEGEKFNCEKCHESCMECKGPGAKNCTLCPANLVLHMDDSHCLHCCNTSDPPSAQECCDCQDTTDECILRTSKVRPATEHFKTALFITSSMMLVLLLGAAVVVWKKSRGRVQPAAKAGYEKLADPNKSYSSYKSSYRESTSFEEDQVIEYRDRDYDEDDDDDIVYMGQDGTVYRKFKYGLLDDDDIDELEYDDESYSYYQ
Coagulation factor X, sequence (P00742 41-179 limits assumed): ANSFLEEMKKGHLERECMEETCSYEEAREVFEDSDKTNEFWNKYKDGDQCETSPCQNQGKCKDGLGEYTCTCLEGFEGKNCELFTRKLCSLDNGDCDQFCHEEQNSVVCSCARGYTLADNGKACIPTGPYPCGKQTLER
Coagulation factor X, sequence (P00742 235-488 limits assumed): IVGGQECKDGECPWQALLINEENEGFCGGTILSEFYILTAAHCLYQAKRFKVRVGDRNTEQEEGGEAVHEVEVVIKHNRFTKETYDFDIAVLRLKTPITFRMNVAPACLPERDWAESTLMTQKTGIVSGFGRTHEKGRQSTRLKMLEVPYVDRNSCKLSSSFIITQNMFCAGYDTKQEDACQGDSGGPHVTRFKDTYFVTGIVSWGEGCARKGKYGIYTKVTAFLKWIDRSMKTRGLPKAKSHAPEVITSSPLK
Plasminogen, sequence (P00747 97-580 limits assumed): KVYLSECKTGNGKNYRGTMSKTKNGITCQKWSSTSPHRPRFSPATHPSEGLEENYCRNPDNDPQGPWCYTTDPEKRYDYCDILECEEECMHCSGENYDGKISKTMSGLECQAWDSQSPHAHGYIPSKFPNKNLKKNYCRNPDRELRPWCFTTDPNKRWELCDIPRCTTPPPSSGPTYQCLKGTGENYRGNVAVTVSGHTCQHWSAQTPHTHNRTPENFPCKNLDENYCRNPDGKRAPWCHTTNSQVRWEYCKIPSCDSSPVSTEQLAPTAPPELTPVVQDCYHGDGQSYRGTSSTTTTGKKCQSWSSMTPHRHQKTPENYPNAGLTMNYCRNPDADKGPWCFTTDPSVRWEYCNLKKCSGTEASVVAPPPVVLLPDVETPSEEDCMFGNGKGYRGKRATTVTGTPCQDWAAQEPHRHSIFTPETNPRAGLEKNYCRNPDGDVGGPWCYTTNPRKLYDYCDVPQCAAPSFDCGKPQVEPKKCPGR
Plasminogen, sequence (P00747 581-810 limits assumed): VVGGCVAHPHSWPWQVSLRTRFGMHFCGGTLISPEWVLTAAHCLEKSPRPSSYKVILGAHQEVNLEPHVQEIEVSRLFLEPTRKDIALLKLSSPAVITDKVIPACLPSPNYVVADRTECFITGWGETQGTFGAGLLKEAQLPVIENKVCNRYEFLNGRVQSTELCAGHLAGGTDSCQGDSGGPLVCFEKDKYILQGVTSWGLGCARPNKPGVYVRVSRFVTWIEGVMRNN

Q: For `CC(C)[C@H](NC(=O)[C@H](CCCN=C(N)N)NC(=O)Cc1ccccc1)C(=O)N[C@@H](CCCN=C(N)N)C(=O)NCCCCN`, which Ki (Furin) is on record?
A: Its Ki is 7.49 µM.

Q: Which results are given for `CC(C)[C@H](NC(=O)[C@H](CCCNC(=N)N)NC(=O)Cc1ccccc1)C(=O)N[C@@H](CCCNC(=N)N)C(=O)NCCCCNC(=N)N` (PhAc-Arg-Val-Arg-Agmatine)?
A: Ki [1]: 0.042 µM; Ki (Coagulation factor X): 83 µM; Ki [2]: 0.085 µM; Ki (Plasminogen): 97 µM; Ki [3]: > 10 µM; Ki (Prothrombin): 102 µM; Ki (Furin): 0.078 µM; Ki [4]: > 10 µM; Ki [5]: 0.053 µM

Q: Which Ki [1] does the source give for `CC(C)[C@H](NC(=O)[C@H](CCCNC(=N)N)NC(=O)Cc1ccccc1)C(=O)N[C@@H](CCCNC(=N)N)C(=O)NCC1CCN(C(=N)N)CC1` here?
A: Its Ki is 0.067 µM.

Q: And the Ki (Coagulation factor X)?
A: The Ki was 123 µM.

Q: And the Ki [2]?
A: The Ki was 0.173 µM.

Q: And the Ki (Plasminogen)?
A: Its Ki is greater than 1000 µM.

Q: And the Ki [3]?
A: Its Ki is greater than 10 µM.

Q: What about the Ki (Prothrombin) of the same compound?
A: Its Ki is 50 µM.

Q: What about the Ki (Furin) of the same compound?
A: The Ki was 0.053 µM.

Q: And the Ki [4]?
A: The Ki was greater than 10 µM.

Q: What about the Ki [5] of the same compound?
A: Its Ki is 0.07 µM.

Q: For `CC(C)[C@H](NC(=O)[C@H](CCCN=C(N)N)NC(=O)Cc1ccccc1)C(=O)N[C@@H](CCCN=C(N)N)C(=O)NCC1CCNCC1`, which Ki (Furin) is on record?
A: Its Ki is 9.71 µM.

Q: For `CC(C)[C@H](NC(=O)[C@H](CCCN=C(N)N)NC(=O)Cc1ccccc1)C(=O)N[C@@H](CCCN=C(N)N)C(=O)NCc1ccc(CN=C(N)N)cc1`, which Ki (Furin) is on record?
A: The Ki was 1.43 µM.

Q: With `CC(=O)N[C@@H](CCCNC(=N)N)C(=O)N[C@H](C(=O)N[C@@H](CCCNC(=N)N)C(=O)NCc1ccc(C(=N)N)cc1)C(C)C` as the compound, how does the Ki [1] read?
A: The Ki was 0.0024 µM.

Q: What about the Ki [2] of the same compound?
A: Its Ki is 0.0036 µM.

Q: And the Ki [3]?
A: Its Ki is 5.13 µM.

Q: And the Ki (Furin)?
A: Its Ki is 0.001 µM.

Q: And the Ki [4]?
A: Its Ki is 1.39 µM.

Q: And the Ki [5]?
A: Its Ki is 0.0017 µM.

Q: With `CC(C)[C@H](NC(=O)[C@H](CCCN=C(N)N)NC(=O)Cc1ccccc1)C(=O)N[C@@H](CCCN=C(N)N)C(=O)NCc1cccc(CN)c1` as the compound, how does the Ki (Furin) read?
A: The Ki was 1.32 µM.

Q: Which Ki (Furin) does the source give for `CC(C)[C@H](NC(=O)[C@H](CCCNC(=N)N)NC(=O)Cc1ccccc1)C(=O)N[C@@H](CCCNC(=N)N)C(=O)NCCCN` here?
A: Its Ki is 3.02 µM.

Q: With `CC(C)[C@H](NC(=O)[C@H](CCCNC(=N)N)NC(=O)Cc1ccccc1)C(=O)N[C@@H](CCCNC(=N)N)C(=O)NCc1ccc(CN)cc1` as the compound, how does the Ki (Furin) read?
A: Its Ki is 0.627 µM.

Q: Which Ki (Furin) does the source give for `CC(C)[C@H](NC(=O)[C@H](CCCNC(=N)N)NC(=O)Cc1ccccc1)C(=O)N[C@@H](CCCNC(=N)N)C(=O)NCCCCCN` here?
A: The Ki was 0.553 µM.

Q: For `CCCCCCCCCC(=O)N[C@@H](CCCN=C(N)N)C(=O)N[C@H](C(=O)N[C@@H](CCCCN)C(=O)NCc1ccc(C(=N)N)cc1)C(C)C`, which Ki (Furin) is on record?
A: Its Ki is 0.0033 µM.

Q: With `CC(C)[C@H](NC(=O)[C@H](CCCNC(=N)N)NC(=O)Cc1ccccc1)C(=O)N[C@@H](CCCNC(=N)N)C(=O)NCc1ccc(C(=N)N)cc1` as the compound, how does the Ki [1] read?
A: Its Ki is 0.0006 µM.

Q: And the Ki (Coagulation factor X)?
A: The Ki was 40 µM.

Q: What about the Ki [2] of the same compound?
A: The Ki was 0.0016 µM.

Q: What about the Ki (Plasminogen) of the same compound?
A: Its Ki is 6 µM.

Q: And the Ki [3]?
A: Its Ki is 6.15 µM.

Q: And the Ki (Prothrombin)?
A: Its Ki is 23 µM.

Q: And the IC50 (cells)?
A: The IC50 was 10 µM.

Q: And the Ki [4]?
A: The Ki was 0.312 µM.

Q: What about the Ki [5] of the same compound?
A: The Ki was 0.00075 µM.

Q: With `CCCCCCCCCC(=O)N[C@@H](CCCN=C(N)N)C(=O)N[C@H](C(=O)N[C@@H](CCCN=C(N)N)C(=O)NCc1ccc(C(=N)N)cc1)C(C)C` as the compound, how does the Ki [1] read?
A: Its Ki is 0.003 µM.

Q: And the Ki [2]?
A: The Ki was 0.0063 µM.

Q: What about the Ki [3] of the same compound?
A: Its Ki is 0.968 µM.

Q: And the Ki (Furin)?
A: Its Ki is 0.0016 µM.

Q: And the Ki [4]?
A: Its Ki is 0.055 µM.

Q: What about the Ki [5] of the same compound?
A: Its Ki is 0.00365 µM.

Q: With `CC(C)[C@H](NC(=O)[C@H](CCCN=C(N)N)NC(=O)Cc1ccccc1)C(=O)N[C@@H](CCCN=C(N)N)C(=O)NCc1cccc(CN=C(N)N)c1` as the compound, how does the Ki (Furin) read?
A: Its Ki is 2.73 µM.

Q: Which Ki (Furin) does the source give for `CC(C)[C@H](NC(=O)[C@H](CCCN=C(N)N)NC(=O)Cc1ccccc1)C(=O)N[C@@H](CCCN=C(N)N)C(=O)NCCCCCN=C(N)N` here?
A: The Ki was 1.07 µM.

Q: With `CC(C)[C@H](NC(=O)[C@H](CCCN=C(N)N)NC(=O)Cc1ccccc1)C(=O)N[C@@H](CCCN=C(N)N)C(=O)NCCCN=C(N)N` as the compound, how does the Ki (Furin) read?
A: The Ki was 0.063 µM.
